Data: US20250303005A1, “PROSTATE SPECIFIC MEMBRANE ANTIGEN (PSMA) LIGANDS WITH IMPROVED RENAL CLEARANCE” (Deutsches Krebsforschungszentrum Stiftung des öffentlichen …, priority 2022, published 2025)
Like-named read-outs stand apart in the source and are kept apart here. Starred links: 1 amine or outer side, 2 acyl side, 3 side chain; linkers in the order of their positions; H or OH if unused. Non-standard residues stand in square brackets, D forms with d. Residues, ends and D or L forms follow the SMILES beside them. ξ: configuration not given here. *: point of attachment. DOTA = O=C(O)CN1CCN(CC(=O)O)CCN(CC(=O)*)CCN(CC(=O)O)CC1; EuK = O=C(O)CC[C@H](NC(=O)N[C@@H](CCCCN*)C(=O)O)C(=O)O; X2 = O=C(O)CCC(NC(=O)NC(CCCCN*)C(=O)O)C(=O)O; 2Nal = N[C@@H](Cc1ccc2ccccc2c1)C(=O)O; ξ2Nal = NC(Cc1ccc2ccccc2c1)C(=O)O; Trx = NC[C@H]1CC[C@H](C(=O)O)CC1; X1 = O=C(C1CCC(CN[*:1])CC1)[*:2]; Sar = CNCC(=O)O

Experiments:
[1] = system: prostate cancer patients; conditions: two patients with extremely advanced and end-stage disease; cited from earlier work
[2] = target: T1, PSMA (Homo sapiens, UniProt Q04609); experiment: Competitive cell binding assay against 68Ga-PSMA-10 on LNCaP cells
T1 construct: in vitro using PSMA^+-cells (LNCaP); host or cells: LNCaP
T1 sequence (Q04609 whole entry): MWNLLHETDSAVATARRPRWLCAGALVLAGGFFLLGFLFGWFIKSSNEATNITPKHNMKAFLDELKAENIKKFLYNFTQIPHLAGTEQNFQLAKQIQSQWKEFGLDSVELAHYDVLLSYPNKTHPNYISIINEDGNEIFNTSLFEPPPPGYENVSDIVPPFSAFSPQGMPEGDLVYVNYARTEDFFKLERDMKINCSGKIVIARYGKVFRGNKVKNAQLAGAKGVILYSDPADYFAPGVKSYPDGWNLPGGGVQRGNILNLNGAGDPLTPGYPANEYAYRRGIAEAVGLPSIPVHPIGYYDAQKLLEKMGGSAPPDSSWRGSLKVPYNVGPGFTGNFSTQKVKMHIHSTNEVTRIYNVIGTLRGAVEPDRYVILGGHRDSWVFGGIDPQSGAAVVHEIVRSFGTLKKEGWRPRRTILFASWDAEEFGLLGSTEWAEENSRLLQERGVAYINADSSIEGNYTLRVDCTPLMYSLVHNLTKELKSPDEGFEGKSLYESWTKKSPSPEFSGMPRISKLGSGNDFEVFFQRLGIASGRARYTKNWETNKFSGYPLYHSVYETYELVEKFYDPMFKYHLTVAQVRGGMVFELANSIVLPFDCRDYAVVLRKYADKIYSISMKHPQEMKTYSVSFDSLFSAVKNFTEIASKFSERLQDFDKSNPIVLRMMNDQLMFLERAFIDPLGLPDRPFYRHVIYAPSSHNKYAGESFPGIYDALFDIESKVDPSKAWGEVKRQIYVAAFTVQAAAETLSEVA
Method: PSMA+LNCaP cells (CRL-1740; ATCC; PSMA-positive) and PC-3 cells (CRL-1435; ATCC; PSMA-negative) were cultured in RPMI medium supplemented with 10% fetal calf serum and 2 mmol/L L-glutamine (all from PAA). Cells were grown at 37° C. in humidified air with 5% CO2 and were harvested using trypsin-ethylenediaminetetraacetic acid (trypsin-EDTA; 0.25% trypsin, 0.02% EDTA, Invitrogen). The competitive cell binding assay and internalization experiments were performed as described previously (2). For competitive cell binding, the cells (10^5 per well) were incubated with a 0.8 nM solution of ^68Ga-labeled radioligand [Glu-urea-Lys(Ahx)]2-HBED-CC (PSMA-10, precursor ordered from ABX, Radeberg, Germany) in the presence of 12 different concentrations of DOTA-compound (0-5000 nM, 100 μL/well). After incubation, the mixture was removed and the wells were washed 3 times with PBS using a multiscreen vacuum manifold (Millipore, Billerica, MA). Cell-bound radioactivity was measured using a gamma counter (Perkin Elmer 2480, Wizard, Gamma Counter). The 50% inhibitory concentration (IC50) values were calculated by fitting the data using a nonlinear regression algorithm (GraphPad Software) (see Table 2)

[3] = system: PSMA+LNCaP cells; experiment: Cell surface binding and internalization of 68Ga-labeled compounds; format: cell-based; conditions: specific uptake by blockage with 500 μM 2-PMPA, mean ± SD (n = 3)
Method: (§1) PSMA+LNCaP cells (CRL-1740; ATCC; PSMA-positive) and PC-3 cells (CRL-1435; ATCC; PSMA-negative) were cultured in RPMI medium supplemented with 10% fetal calf serum and 2 mmol/L L-glutamine (all from PAA). Cells were grown at 37° C. in humidified air with 5% CO2 and were harvested using trypsin-ethylenediaminetetraacetic acid (trypsin-EDTA; 0.25% trypsin, 0.02% EDTA, Invitrogen).
(§2) For internalization experiments, 10^5 cells per well were seeded in poly-L-lysine coated 24-well cell culture plates 24 h before incubation. After washing, the cells were incubated with 30 nM of the radiolabeled DOTA-compound (radiolabeled with ^68Ga or ^177Lu) for 45 min at 37° C. (labeling was performed with 5 nmol of precursor peptide). Specific cell uptake was determined by blockage using 500 μM 2-PMPA (2-(phosphonomethyl)pentanedioic acid). Cellular uptake was terminated by washing 3 times with 1 mL of ice-cold PBS. To remove surface-bound radioactivity, cells were incubated twice with 0.5 mL glycine-HCl in PBS (50 mM, pH=2.8) for 5 min. The cells were washed with 1 mL of ice-cold PBS and lysed using 0.3 N NaOH (0.5 mL). The surface-bound and the internalized fractions were measured in a gamma counter. The cell uptake was calculated as percent of the initially added radioactivity bound to 10^5 cells [% ID/10^5 cells] (see Table 2 and Table 2a).

[4] = system: PSMA+LNCaP cells; experiment: Cell surface binding and internalization of 177Lu labeled compounds, without or with blocking by 2-PMPA; format: cell-based; conditions: 7.5 pmol precursor per 10^5 cells, 45 min; for Internalization Block / Surface Block: with blocking by 500 μM 2-PMPA (n = 3); for Internalization / Surface: without blocking (n = 3)
Method: as §1, §2

[5] = free ligands, LNCaP, radioligand 68Ga-PSMA-10 0.8 nM, mean ± SD (n = 3), read-out: ki free ligands

Ki [2, 5] [nM] | SMILES | Response in patients [1] | Ki [2] [nM] | Specifically cell surface bound [3] [% AR/10^5 cells] | Specifically internalized [3] [% AR/10^5 cells] | Internalization Block [4] [% AR/10^5 cells] | Surface Block [4] [% AR/10^5 cells] | Internalization [4] [% AR/10^5 cells] | Surface [4] [% AR/10^5 cells]
 | O=C([O-])CC[C@H](NC(=O)N[C@@H](CCCCNC(=O)[C@H](Cc1ccc2ccccc2c1)NC(=O)C1CCC(CNC(=O)CN2CCN(CC(=O)[O-])CCN(CC(=O)[O-])CCN(CC(=O)[O-])CC2)CC1)C(=O)[O-])C(=O)[O-].[225Ac].[H+].[H+].[H+] (stereo partly shown) [225Ac-PSMA-617] | complete remission |  |  |  |  |  |  | 
 | CN(CC(=O)NC[C@H]1CC[C@H](C(=O)N[C@@H](Cc2ccc3ccccc3c2)C(=O)NCCCC[C@H](NC(=O)N[C@@H](CCC(=O)O)C(=O)O)C(=O)O)CC1)C(=O)CN(C)C(=O)CN(C)C(=O)CN1CCN(CC(=O)O)CCN(CC(=O)O)CCN(CC(=O)O)CC1 [DOTA-Sar3-Chx-2-NaI-Lys-urea-Glu] ({DOTA}-[Sar][Sar][Sar][Trx][2Nal]-EuK) |  | 29.7 ± 24.2 | 4.42 ± 2.05 | 2.20 ± 0.98 | 0.01 ± 0.01 | 0.03 ± 0.01 | 0.13 ± 0.08 | 0.65 ± 0.15
54.3 ± 33.6 | CN(CC(=O)NCC1CCC(C(=O)NC(Cc2ccc3ccccc3c2)C(=O)NCCCCC(NC(=O)NC(CCC(=O)O)C(=O)O)C(=O)O)CC1)C(=O)CN(C)C(=O)CN(C)C(=O)CN(C)C(=O)CN(C)C(=O)CN1CCN(CC(=O)O)CCN(CC(=O)O)CCN(CC(=O)O)CC1 (stereo not shown) [DOTA-Sar5-Chx-2-NaI-Lys-urea-Glu] ({DOTA}-[Sar][Sar][Sar][Sar][Sar][X1][ξ2Nal]-X2) |  |  | 2.79 ± 0.50 | 1.99 ± 1.15 | 0.00 ± 0.00 | 0.02 ± 0.01 | 0.10 ± 0.06 | 0.47 ± 0.12
96.8 ± 96.4 | CN(CC(=O)NCC1CCC(C(=O)NC(Cc2ccc3ccccc3c2)C(=O)NCCCCC(NC(=O)NC(CCC(=O)O)C(=O)O)C(=O)O)CC1)C(=O)CN(C)C(=O)CN(C)C(=O)CN(C)C(=O)CN(C)C(=O)CN(C)C(=O)CN(C)C(=O)CN(C)C(=O)CN(C)C(=O)CN(C)C(=O)CN1CCN(CC(=O)O)CCN(CC(=O)O)CCN(CC(=O)O)CC1 (stereo not shown) [DOTA-Sar10-Chx-2-NaI-Lys-urea-Glu] |  |  | 3.66 ± 1.31 | 2.31 ± 0.90 | 0.00 ± 0.00 | 0.03 ± 0.02 | 0.10 ± 0.06 | 0.45 ± 0.08
74.7 ± 36 | CN(CC(=O)NCC1CCC(C(=O)NC(Cc2ccc3ccccc3c2)C(=O)NCCCCC(NC(=O)NC(CCC(=O)O)C(=O)O)C(=O)O)CC1)C(=O)CN(C)C(=O)CN(C)C(=O)CN(C)C(=O)CN(C)C(=O)CN(C)C(=O)CN(C)C(=O)CN(C)C(=O)CN(C)C(=O)CN(C)C(=O)CN(C)C(=O)CN(C)C(=O)CN(C)C(=O)CN(C)C(=O)CN(C)C(=O)CN1CCN(CC(=O)O)CCN(CC(=O)O)CCN(CC(=O)O)CC1 (stereo not shown) [DOTA-Sar15-Chx-2-NaI-Lys-urea-Glu] |  |  | 3.71 ± 1.55 | 2.03 ± 1.71 | 0.00 ± 0.00 | 0.02 ± 0.01 | 0.11 ± 0.05 | 0.52 ± 0.03
 | O=C(O)CC[C@H](NC(=O)N[C@@H](CCCCNC(=O)[C@H](Cc1ccc2ccccc2c1)NC(=O)[C@H]1CC[C@H](CNC(=O)CN2CCN(CC(=O)O)CCN(CC(=O)O)CCN(CC(=O)O)CC2)CC1)C(=O)O)C(=O)O [PSMA-617, reference compound] |  |  | 3.47 ± 1.53 | 2.55 ± 1.97 |  |  |  | 
